Key:
[1] = conventional form, Br J Clin Pharmacol 1988, 25:264-8; cited from earlier work
[2] = test system: postoperative pain; details: oral vs intramuscular; cited from earlier work
[3] = test system: SD rats; test: Paw pressure test (Randall and Selitto), analgesic effect after oral administration; assay type: in vivo, Sprague-Dawley rats; details: alone or combined, mean ± SE; for AUG / AUC: analgesic effect AUC; for AUC: 0-300 min; for Maximum Peak (% of MPA): cut-off 750 g; for Duration of action (min) (20% of MPA): time over 20% MPA; for Onset of action (min) (20% of MPA): time up to 20% MPA
Procedure: Male Sprague-Dawley rats weights between 260 and 330 g were purchased from BioLASCO (Taipei, Taiwan). The rats were housed in a controlled condition (free access to food and water); 12-h light-dark cycle, temperature 22° C. and humidity 60%. All experiments were conducted in accordance with the IACUC's Protocol for the Care and Use of Animals and to treat the animals in an ethical and humane manner consistent with the law.
Analgesic effects studies were used to the paw pressure test by Randall and Selitto. Nociceptive threshold is expressed in grams and measured with an analgesimeter (IITC Inc. Life Science, CA), were applied to the left hind paw of rats. All animals were tested at 15, 30, and 45 min prior to medication, to obtain an average baseline. Results were expressed as a percentage of the maximum possible effect (% MPE), according to the formula % MPA=(Test-Baseline)/(Cutoff-Baseline)×100, cut-off value: 750 g. AUC (area under curve) is independent of each individual, at each time point detection value minus own baseline and integral, then calculated the average. Negative values (% MPA and AUC) are considered as zero. The maximum peak of % MPA and Tmax are independent of each individual, then calculated the average. With 20% MPA as a baseline of valid analgesic effect, analysis of onset time of action up to 20% MPA and duration time of action over 20% MPA. Pharmacodynamic studies were conducted to compare in rats the analgesic effects of oral administration of SDE 75 mg/kg alone. AAP product (100 mg/kg) alone and combinations of SDE 75 mg/kg plus AAP product (100 mg/kg) or NAL 60 mg/kg alone. AAP product (100 mg/kg) alone and combinations of NAL 60 mg/kg plus AAP product (100 mg/kg). The anti-nociceptive thresholds were measured at 30, 60, 90, 120, 150, 180, 210, 240, 270, and 300 min after drug administration.

[4] = test system: hospitalized patients with postoperative pain; details: single oral doses, 128 hospitalized patients, evaluated each hour for 6 hours; Clin Pharmacol Ther 1986; 39:295-9; cited from earlier work
[5] = Test 2, NAL 60 mg/kg, AAP product 100 mg/kg, MPA greater than 50%
[6] = Test 2, NAL 60 mg/kg, AAP product 100 mg/kg
[7] = Test 1, AAP product 100 mg/kg, SDE 75 mg/kg
[8] = Test 1, AAP product 100 mg/kg, SDE 75 mg/kg, time of maximum % MPA

SMILES | bioavailability through oral administration [1] | potency of oral relative to intramuscular nalbuphine as postoperative analgesic [2] | Duration of action [3, 5] | Onset of action [3, 5] | AUG [3, 6] | % MPA (Maximum Peak) [3, 6] | Tmax [3, 6] | analgesic effect (measures of total and peak analgesia) [4] | AUC [3, 7] | Maximum Peak (% of MPA) [3, 7] | Tmax [3, 8] | Duration of action (min) (20% of MPA) [3, 7] | Onset of action (min) (20% of MPA) [3, 7]
Oc1ccc2c3c1O[C@H]1[C@@H](O)CC[C@@]4(O)[C@@H](C2)N(CC2CCC2)CC[C@]314 [NAL, nalbuphine] | less than 5% | one quarter to one fifth as potent as intramuscular nalbuphine | 16.61 ± 3.92 min | 24.36 ± 0.86 min | 298.9 ± 13.98 g·h | 57.87 ± 2.77 % MPA | 30 ± 0 min | significantly superior to placebo | – | – | – | – | –
CC(=O)Nc1ccc(O)cc1 [AAP, acetaminophen] | – | – | – | – | 274.83 ± 51.94 g·h | 38.26 ± 7.2 % MPA | 45 ± 8.66 min | significantly superior to placebo | 309.3 ± 68.5 g·h | 32.4 ± 2.7 % of MPA | 50.0 ± 10.0 min | 77.5 ± 13.5 min | 46.7 ± 17.5 min
O=C(CCCCCCCCC(=O)Oc1ccc2c3c1O[C@H]1[C@@H](O)CC[C@@]4(O)[C@@H](C2)N(CC2CCC2)CC[C@]314)Oc1ccc2c3c1O[C@H]1[C@@H](O)CC[C@@]4(O)[C@@H](C2)N(CC2CCC2)CC[C@]314 [SDE, sebacoyl dinalbuphine ester] | – | – | – | – | – | – | – | – | 359.4 ± 34.8 g·h | 46.6 ± 3.8 % of MPA | 37.5 ± 3.9 min | 99.8 ± 10.0 min | 14.7 ± 1.3 min
